The nature of data set [1]: Mn content of brain, pancreas and liver after repeated intravenous injections. The conditions noted are these: rats, 39 iv doses, 72 μmol/kg manganese each, 3 times a week for 13 weeks.
Method: After the 13-week administration period, the rats were sacrificed and the brains and pancreas were dissected out and approximately 0.5 g samples were stored frozen until Mn analysis. The Mn content of each sample was analyzed by ICP-MS. Results are expressed as μg/g wet weight±S.E.M. Statistical difference between the mangafodipir group and the calmangafodipir group, with respect to Mn content, was tested by a paired Student's t-test. A p-value lower than 0.05 was considered as a statistically significant difference.
Data set [2] can be described thus: Manganese urine excretion 0-24 h after intravenous injection. The conditions noted are these: rats.
Method: To obtain basal content of manganese (Mn) and zinc (Zn) in urine, two additional (control) rats received 0.25 ml saline and were placed in metabolic cages for urine collection over the same period of time. The urine samples were then stored at −80° C. until Mn analysis. Before analysis, the samples were thawed and extensively shaken to obtain homogenous samples. A five ml aliquot was taken from each sample and 5 ml concentrated nitric acid was added. The samples were then resolved in a microwave oven and thereafter diluted with distilled water to a final volume of 50 ml. The Mn content of each sample was analyzed by ICP-MS (Inductively Coupled Plasma Mass Spectrometry). Identical samples of calmangafodipir and mangafodipir as those injected in the rats (i.e., 0.25 ml) were withdrawn and injected into test tubes. These samples were treated in an identical manner to that of the urine samples and analyzed for their Mn content. Results are presented as total 0-24 h urine Mn content (expressed as μmol/kg±S.E.M.) and as percentage (±S.E.M.) of the injected dose. […] A p-value lower than 0.05 was considered as a statistically significant difference.
For data set [3] the following is noted: rats, single 5 μmol/kg b.w., cited from earlier work.
For data set [4] the following is noted: rats; cited from earlier work.
In a further data set the test system is pig heart. The settings on record: pigs; cited from earlier work.
The conditions of data set [5]: one patient, cited from earlier work.
A further data set relates to human U1810 NSCLC cells. Put plainly: MTT viability assay, cytotoxic activity. It counts as cell-based. The settings on record: 48 h, MTT, read-out: IC50 (concentration causing 50% inhibition of viability). As to the method: The viability of U1810 or LLC1 cells in the presence of increasing concentrations of calmangafodipir or mangafodipir is presented as concentration response curves (mean±S.D.). The individual curves were fitted to the sigmoidal variable slope response logistic equation (Graphpad Prism, version 5.02). From this analysis the concentrations causing 50% inhibition (IC50) of the test substances were calculated.
A general note: Tetrazolium dyes change colour on reduction, which living cells bring about.

The conditions of data set [6]: humans, diagnostic MR imaging dose iv; cited from earlier work.
Another data set has as its system white blood cells (WBC). The data set is described as follows: Myelosuppressive effects of oxaliplatin in balb/c mice, cytoprotection.
Data set [7] has as its system white blood cells (WBC), lymphocytes (LYM), neutrophils (NEU). The data set is described as follows: Myelosuppressive effects of carboplatin in balb/c mice, cytoprotection. The format is in vivo. The settings on record: carboplatin 125 mg/kg alone, 3 days after. An excerpt: A control group received vehicle (saline) and saline instead of carboplatin.
For data set [8] the following is noted: cited from earlier work.
Data set [9] concerns CT26 (mouse colon carcinoma) cells. The data set is described as follows: MTT viability assay, cytotoxic activity. The settings on record: 48 h, 1-1,000 μM. The procedure: The viability of cells was measured using the MTT assay. […] The viability of the cells was then assessed by adding 5 mg/ml methylthiazoletetrazolium (MTT) to a final concentration of 0.5 mg/ml and incubating cells for a further 4 h at 37° C. The blue formazan that is formed by mitochondrial dehydrogenases of viable cells was then dissolved over night at 37° C. by adding 10% SDS and 10 mM HCl to a final concentration of 5% SDS and 5 mM HCl. Finally, the absorbance of the solution was read at 570 nm with a reference at 670 nm in a microplate reader Spectramax 340 (Molecular Devices, Sunnyvale, Calif., USA) connected to an Apple Macintosh computer running the program Softmax Pro V1.2.0 (Molecular Devices, Sunnyvale, Calif., USA).

For another data set, the system named is CT26 tumors. Put plainly: Antitumor activity of oxaliplatin with or without calmangafodipir in CT26-bearing mice. The settings on record: single treatment 20 mg/kg oxaliplatin i.p., day 10. The format is in vivo, balb/c mice. As to the method:
When the cells reached ˜50% confluency they were harvested by trypsinization. Briefly, cells were washed with phosphate based saline (PBS) (pH 7.3) and exposed to 0.05% Trypsin/0.53 mM EDTA at 37° C. for ˜5 min. The trypsinization was stopped by adding RPMI1640 culture medium. Cells were counted and centrifuged at 200×g for 5 min. Thereafter, they were washed in PBS, centrifuged again and resuspended in PBS at a concentration of 2×10^6/350 μl for injection into mice. Balb/c female mice between 6 and 8 weeks of age were used, as described by Laurent et al., 2005. Briefly, each mouse was injected subcutaneously in the back of the neck with 2×10^6 of CT26 cells at day 0. After 7 days (day 7) when the tumors were detectable, the tumor size was determined with a caliper and mice were grouped (5 in each group) so that the sizes of the tumors were not statistically different by group. Oxaliplatin±calmangafodipir (lot #11AK0105B) was injected and one group of mice received vehicle (0.9% saline+5% glucose) treatment alone. In a first series of experiments, mice were injected i.v. with saline or 50 mg/kg calmangafodipir 30 minutes prior to i.p. administration of 20 mg/kg oxaliplatin (diluted in 5% glucose) or 5% glucose. These mice received in addition saline or 50mg/kg calmangafodipir 24 hours later (day 8). In another series of experiments, mice were injected i.v. with saline or 5 mg/kg calmangafodipir 30 minutes […] (diluted in 5% glucose) or 5% glucose, and saline or 5 mg/kg calmangafodipir 24 hours later (day 8). The mice were killed on day 10 and the tumors were excised and wet weights were determined.

Like-named read-outs stand apart in the source and are kept apart here.

Consider `Cc1ncc(COP(=O)(O)O)c(CN(CCN(CC(=O)O)Cc2c(COP(=O)(O)O)cnc(C)c2O)CC(=O)O)c1O.[Mn]` [mangafodipir, manganese N,N′-bis-(pyridoxal-5-phosphate)-ethylenediamine-N,N′-diacetic acid], for which, in data set [1], the “Mn content in the pancreas” value worked out at 5.54 ± 0.45 µmol/kg. In addition, the “Mn recovered in 0-24 h urine” value in data set [2] (iv 0.25 ml, 2.59 μmol Mn (mangafodipir) or 2.52 μmol Mn (calmangafodipir) injected) was 0.60 ± 0.04 µmol. Besides, in [2] (iv, basal excretion subtracted), the “Mn in 0-24 h urine as percentage of the injected dose” value is listed as 23.1±1.4%. The “Mn content of the pancreas relative to basal value” is recorded as “approximately 10 times” in data set [3] (after 2 hours) and “about 5 times” in [3] (after 24 hours). The fetal skeletal abnormalities entry in [4] was “caused fetal skeletal abnormalities in rats”. For the same compound, the “protection against ischemia-reperfusion-induced myocardial infarction” value with pig heart is on record as “does not protect the pig heart against ischemia-reperfusion-induced myocardial infarction”. In data set [5] (14 of 15 cycles with mangafodipir pretreatment, accumulated 1275 mg/m^2 oxaliplatin), the neurotoxic symptoms result is “No neurotoxic symptoms were detected”. Further, the neutropenia result in data set [5] (during chemotherapy cycles) is listed as “Neutropenia did not occur”. For the same compound, the IC50 with human U1810 NSCLC cells was 633 µM. In data set [6], the administered manganese released entry is on record as “about 80%”. Further, the “fall in WBC” value in the data set on white blood cells (WBC) (12.5 mg/kg oxaliplatin plus 1 mg/kg mangafodipir iv) and in the data set with white blood cells (WBC) (12.5 mg/kg oxaliplatin plus 10 mg/kg mangafodipir iv) was “around 50%” throughout.
Take `N.N.O=C([O-])C1(C(=O)[O-])CCC1.[Pt+2]` [Carboplatin, carboplatin]: the “decrease in WBC, as well as in NEU and LYM” value in [7] is “approximately 50%”.
In the case of `Cc1ncc(COP(=O)(O)O)c(CN(CCN(CC(=O)O)Cc2c(COP(=O)(O)O)cnc(C)c2O)CC(=O)O)c1O` [fodipir, N,N′-bis-(pyridoxal-5-phosphate)-ethylenediamine-N,N′-diacetic acid], in data set [8] (higher affinity of zinc), the “affinity of zinc relative to manganese for the chelator” value is on record as “about 1000 times”. In data set [8] (lower affinity of calcium), the “affinity of calcium relative to manganese for the chelator” value is “about 10^6 times” and the “affinity of calcium relative to zinc for the chelator” value is reported as “about 10^9 times”. Also, the “cytotoxic activity relative to mangafodipir” value in data set [9] was “about 20 times”.
As to `O=C1[O][Pt]2([NH][C@@H]3CCCC[C@H]3[NH]2)[O]C1=O` [oxaliplatin], the “reduction in tumor weight” value with CT26 tumors was “more than 50%”. The “fall in WBC” value with white blood cells (WBC) (single dose 12.5 mg/kg oxaliplatin alone, 6 days after) was “more than 80%”.
In the case of `Cc1ncc(CO)c(CN(CCN(CC(=O)O)Cc2c(CO)cnc(C)c2O)CC(=O)O)c1O` [MnPLED, N,N′-dipyridoxyl ethylenediamine-N,N′-diacetic acid], the “protection against ischemia-reperfusion-induced myocardial infarction” value in the data set on pig heart is “significantly reduced myocardial infarct size”. Further, the “cytotoxic activity relative to mangafodipir” value in data set [9] was around 10 times.
`Cc1ncc(CO)c(CN(CCN(CC(=O)[O-])Cc2c(CO)cnc(C)c2O)CC(=O)[O-])c1O.[Zn+2]` [ZnPLED]: the “stability of complex relative to manganese counterpart” value in [8] (higher stability) is recorded as 1000 times. The cytotoxic activity result in data set [9] is “Neither ZnDPDP, ZnPLED nor CaCl2 displayed any cytotoxic activity at all”.
In the case of `[Ca+2].[Cl-].[Cl-]` [CaCl2], in [9], the cytotoxic activity result is “Neither ZnDPDP, ZnPLED nor CaCl2 displayed any cytotoxic activity at all”.

Values taken from patent publication US10111893B2, “Calmangafodipir, a new chemical entity, and other mixed metal complexes, methods of preparation, compositions, and methods of treatment” (priority 2012, dated 2018).
